Assay results: patent US20220023773A1, “COMPOSITIONS COMPRISING 2-[(1R,6R)-6-ISOPROPENYL-3-METHYLCYCLOHEX-2-EN-1-YL]-3-HYDROXY-5-PENTYLPHENOLATE” (Natural Extraction Systems, LLC, priority 2018, published 2022)

How the values were obtained:
Type in all cases: physicochemical
[1] = pH stability of the phenolate in water (color change purple to yellow-brown)
Protocol: 1 gram of 1R,6R CBD was dissolved in 6.6 milliliters of 0.5 molar potassium hydroxide (0.5 M KOH) in ethanol to produce 2-[(1R,6R)-6-isopropenyl-3-methylcyclohex-2-en-1-yl]-3-hydroxy-5-pentylphenolate. The solution was then diluted with 100 millimolar sodium carbonate (100 mM Na2CO3) in water to a final volume of 50 milliliters and a 2-[(1R,6R)-6-isopropenyl-3-methylcyclohex-2-en-1-yl]-3-hydroxy-5- pentylphenolate concentration of approximately 20 grams per liter. 0.5 milliliters of the 2-[(1R,6R)-6-isopropenyl-3-methylcyclohex-2-en-1-yl]-3-hydroxy-5-pentylphenolate solution was added to each of 25 test tubes containing 9.5 milliliters of 0.1 molar carbonate/bicarbonate (CO3^2−/HCO3^−) buffer according to Table 1. Each test tube contained approximately 10 milligrams of 2-[(1R,6R)-6-isopropenyl-3-methylcyclohex-2-en-1-yl]-3-hydroxy-5-pentylphenolate at a concentration of approximately 1 gram per liter, approximately 0.66% ethanol by weight, trace potassium ion, and variable sodium ion, carbonate ion, and bicarbonate ion. pH's were confirmed by multiple different measurements. […]

[2] = Commercial viability of beverages comprising the phenolate (appearance in bottled water)
Protocol: 20 milliliters of water was removed from a 1 liter bottle of ESSENTIA® OVERACHIEVING H2O®. ESSENTIA® OVERACHIEVING H2O® contains purified water, sodium bicarbonate, dipotassium phosphate, magnesium sulfate, and calcium chloride, and its pH was determined to be about 9.5. The 20 milliliters of removed water was replaced with 20 milliliters of the 20 gram-per-liter solution of 2-[(1R,6R)-6-isopropenyl-3-methylcyclohex-2-en-1-yl]-3-hydroxy-5-pentylphenolate, which is described in Example 1, and the bottle was hermetically sealed using the screw cap top of the bottle to produce a hermetically-sealed container comprising approximately 400 milligrams of 2-[(1R,6R)-6-isopropenyl-3-methylcyclohex-2-en-1-yl]-3-hydroxy-5-pentylphenolate. The pH of the liquid was measured and determined to be about 10. […] 5 milliliters of water was removed from a 500 milliliter bottle of DASANI® purified water.
DANSANI® purified water contains purified water, magnesium sulfate, potassium chloride, and sodium chloride, and its pH was determined to be about 7.0. The 5 milliliters of removed water was replaced with 5 milliliters of the 20 gram-per-liter solution of 2-[(1R,6R)-6-isopropenyl-3-methylcyclohex-2-en-1-yl]-3-hydroxy-5-pentylphenolate, which is described in Example 1, and the bottle was hermetically sealed using the screw cap top of the bottle to produce a hermetically-sealed container comprising approximately 100 milligrams of 2-[(1R,6R)-6-isopropenyl-3-methylcyclohex-2-en-1-yl]-3-hydroxy-5-pentylphenolate. The pH of the liquid was measured and determined to be about 9.5.
0.5 milliliters of water was removed from a 500 milliliter bottle of DASANI® purified water. DANSANI® purified water contains purified water, magnesium sulfate, potassium chloride, and sodium chloride, and its pH was determined to be about 7.0. […] The pH of the liquid was measured and determined to be about 8.5.

[3] = Determining the approximate pKa of 1R,6R CBD by color at varying sodium bicarbonate concentration; settings: distilled water with sodium bicarbonate, under the test conditions, from color change
Protocol: Example 2. Determining the approximate pKa of IR, 6R CBD 0.5 milliliters of the 20 gram-per-liter solution of 2-[(1R,6R)-6-isopropenyl-3-methylcyclohex-2-en-1-yl]-3-hydroxy-5-pentylphenolate described in Example 1 was diluted with 9.5 milliliters of distilled water comprising varying concentrations of sodium bicarbonate, and color was monitored as shown in Table 2. pH's were confirmed by multiple different measurements.

Row | Compound | color change from purple (phenolate) to yellow-brown (1R,6R CBD) ([1]; pH's of 9.1 and above, approximately 1 gram per liter in 0.1 molar carbonate/bicarbonate buffer, approximately 0.66% ethanol) | appearance of the liquid ([2]; approximately 10 milligrams in 500 milliliter bottle of DASANI purified water, pH about 8.5) | appearance of the liquid ([2]; approximately 100 milligrams in 500 milliliter bottle of DASANI purified water, pH about 9.5) | appearance of the liquid ([2]; approximately 400 milligrams in 1 liter bottle of ESSENTIA OVERACHIEVING H2O, pH about 10) | pKa [3] | pKa ([1]; suggested from absence of color change, at least in dilute aqueous solutions (alternative: kinetic trapping))
1 | C=C(C)[C@@H]1CCC(C)=C[C@H]1c1c(O)cc(CCCCC)cc1O [2-[(1R,6R)-6-isopropenyl-3-methylcyclohex-2-en-1-yl]-3-hydroxy-5-pentylphenolate] | No color change | transparent and lacked discernable color | transparent and purple | purple and transparent |  | 
2 | C=C(C)[C@@H]1CCC(C)=C[C@H]1c1c(O)cc(CCCCC)cc1O [1R,6R CBD, 2-[(1R,6R)-6-isopropenyl-3-methylcyclohex-2-en-1-yl]-5-pentylbenzene-1,3-diol, reference compound] |  |  |  |  | 8 to 8.5 | < 9.1
